Experimental data as given in patent US10405547B2, “Substituted cyclic amides as herbicides” (FMC Corporation, priority 2015, dated 2019).

Tests used:
Format in all cases: in vivo
[1] = tested on: ragweed (common ragweed, Ambrosia elatior); test: Test A preemergence, ragweed; settings: 0 to 100 scale (0 no effect, 100 complete control)
Procedure, shortened: (§1)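 Ratings use a 0–100 scale, where 0 means no effect and 100 means complete control, and come from visual comparison with untreated plants roughly 10 days after treatment. Compounds were applied in a surfactant-containing, non-phytotoxic solvent, either to soil after seeding or to foliage of small seedlings.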

[2] = tested on: ryegrass, Italian (Lolium multiflorum); test: Test A postemergence, Italian ryegrass; settings: visual injury, 0 to 100 scale (0 no effect, 100 complete control), approximately 10 days
Procedure, shortened: as §1

[3] = tested on: pigweed (Amaranthus retroflexus); test: Test A postemergence, pigweed; settings: visual injury, 0 to 100 scale (0 no effect, 100 complete control), approximately 10 days
Procedure, shortened: as §1

[4] = tested on: barnyardgrass (Echinochloa crus-galli); test: Test B flooded paddy test, barnyardgrass; settings: 250 g ai/ha, applied to paddy water, visual rating after 13 to 15 days, scale 0 (no effect) to 100 (complete control)
Procedure, shortened: (§2)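 Ratings were visual and made relative to untreated controls after 13 to 15 greenhouse days.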

[5] = tested on: ryegrass, Italian (Lolium multiflorum); test: Test A preemergence, Italian ryegrass; settings: 0 to 100 scale (0 no effect, 100 complete control)
Procedure, shortened: as §1

[6] = tested on: barnyardgrass (Echinochloa crus-galli); test: Test A postemergence, barnyardgrass; settings: visual injury, 0 to 100 scale (0 no effect, 100 complete control), approximately 10 days
Procedure, shortened: as §1

[7] = tested on: pigweed (Amaranthus retroflexus); test: Test A preemergence, pigweed; settings: 0 to 100 scale (0 no effect, 100 complete control)
Procedure, shortened: as §1

[8] = tested on: galium (catchweed bedstraw, Galium aparine); test: Test A postemergence, galium; settings: visual injury, 0 to 100 scale (0 no effect, 100 complete control), approximately 10 days
Procedure, shortened: as §1

[9] = tested on: barnyardgrass (Echinochloa crus-galli); test: Test A preemergence, barnyardgrass; settings: 0 to 100 scale (0 no effect, 100 complete control)
Procedure, shortened: as §1

[10] = tested on: ragweed (common ragweed, Ambrosia elatior); test: Test A postemergence, ragweed; settings: visual injury, 0 to 100 scale (0 no effect, 100 complete control), approximately 10 days
Procedure, shortened: as §1

kochia (Kochia scoparia) [11] = test: Test A preemergence, kochia; settings: 0 to 100 scale (0 no effect, 100 complete control)
Procedure, shortened: as §1

[12] = tested on: ducksalad (Heteranthera limosa); test: Test B flooded paddy test, ducksalad; settings: 250 g ai/ha, applied to paddy water, visual rating after 13 to 15 days, scale 0 (no effect) to 100 (complete control)
Procedure, shortened: as §2

[13] = tested on: foxtail, giant (Setaria faberii); test: Test A postemergence, giant foxtail; settings: visual injury, 0 to 100 scale (0 no effect, 100 complete control), approximately 10 days
Procedure, shortened: as §1

kochia (Kochia scoparia) [14] = test: Test A postemergence, kochia; settings: visual injury, 0 to 100 scale (0 no effect, 100 complete control), approximately 10 days
Procedure, shortened: as §1

corn (Zea mays) = test: Test A postemergence, corn; settings: visual injury, 0 to 100 scale (0 no effect, 100 complete control), approximately 10 days
Procedure, shortened: as §1

rice (Oryza sativa) = test: Test B flooded paddy test, rice; settings: 250 g ai/ha, applied to paddy water, visual rating after 13 to 15 days, scale 0 (no effect) to 100 (complete control)
Procedure, shortened: as §2

[15] = tested on: foxtail, giant (Setaria faberii); test: Test A preemergence, giant foxtail; settings: 0 to 100 scale (0 no effect, 100 complete control)
Procedure, shortened: as §1

[16] = tested on: wheat (Triticum aestivum); test: Test A postemergence, wheat; settings: visual injury, 0 to 100 scale (0 no effect, 100 complete control), approximately 10 days
Procedure, shortened: as §1

[17] = tested on: blackgrass (Alopecurus myosuroides); test: Test A postemergence, blackgrass; settings: visual injury, 0 to 100 scale (0 no effect, 100 complete control), approximately 10 days
Procedure, shortened: as §1

[18] = tested on: sedge, umbrella (small-flower umbrella sedge, Cyperus difformis); test: Test B flooded paddy test, umbrella sedge; settings: 250 g ai/ha, applied to paddy water, visual rating after 13 to 15 days, scale 0 (no effect) to 100 (complete control)
Procedure, shortened: as §2

Structure (SMILES)	Plant response rating, Ragweed ([1]; 125 g ai/ha)	Plant response rating, Ragweed ([1]; 500 g ai/ha)	Plant response rating, Ryegrass, Italian ([2]; 125 g ai/ha)	Plant response rating, Ryegrass, Italian ([2]; 500 g ai/ha)	Plant response rating, Pigweed ([3]; 125 g ai/ha)	Plant response rating, Pigweed ([3]; 500 g ai/ha)	Plant response rating, Barnyardgrass (Flood) [4]	Plant response rating, Ryegrass, Italian ([5]; 125 g ai/ha)	Plant response rating, Ryegrass, Italian ([5]; 500 g ai/ha)	Plant response rating, Barnyardgrass ([6]; 125 g ai/ha)	Plant response rating, Barnyardgrass ([6]; 500 g ai/ha)	Plant response rating, Pigweed ([7]; 125 g ai/ha)	Plant response rating, Pigweed ([7]; 500 g ai/ha)	Plant response rating, Galium ([8]; 125 g ai/ha)	Plant response rating, Galium ([8]; 500 g ai/ha)	Plant response rating, Barnyardgrass ([9]; 125 g ai/ha)	Plant response rating, Barnyardgrass ([9]; 500 g ai/ha)	Plant response rating, Ragweed ([10]; 125 g ai/ha)	Plant response rating, Ragweed ([10]; 500 g ai/ha)	Plant response rating, Kochia (kochia (Kochia scoparia) [11]; 125 g ai/ha)	other results
CN1CC(c2cccc(Oc3ccc(C(F)(F)F)cn3)c2)C(C(=O)Nc2cccc(F)c2F)C1=O (single isomer, unassigned) [Compound 44]	0	60	0	30	50	80	40	30	90	90	90	30	80	70	80	80	80	0	0	0	Plant response rating, Kochia (kochia (Kochia scoparia) [11]; 500 g ai/ha): 0; Plant response rating, Ducksalad (Flood) [12]: 90; Plant response rating, Foxtail, Giant ([13]; 125 g ai/ha): 70; Plant response rating, Foxtail, Giant ([13]; 500 g ai/ha): 80; Plant response rating, Kochia (kochia (Kochia scoparia) [14]; 125 g ai/ha): 30; Plant response rating, Kochia (kochia (Kochia scoparia) [14]; 500 g ai/ha): 60; Plant response rating, Corn (corn (Zea mays); 125 g ai/ha): 40; Plant response rating, Corn (corn (Zea mays); 500 g ai/ha): 80; Plant response rating, Rice (Flood) (rice (Oryza sativa)): 0; Plant response rating, Foxtail, Giant ([15]; 125 g ai/ha): 90; Plant response rating, Foxtail, Giant ([15]; 500 g ai/ha): 90; Plant response rating, Wheat ([16]; 125 g ai/ha): 0; Plant response rating, Wheat ([16]; 500 g ai/ha): 50; Plant response rating, Blackgrass ([17]; 125 g ai/ha): 30; Plant response rating, Blackgrass ([17]; 500 g ai/ha): 50; Plant response rating, Sedge, Umbrella (Flood) [18]: 0
O=C1NCC(c2cccc(OCC3OCCO3)c2)C1C(=O)Nc1ccccc1F (stereo not drawn) [Compound 8]	0	0	0	0	0	0	0	0	0	0	70	0	0	0	0	50	80	0	10	0	Plant response rating, Kochia (kochia (Kochia scoparia) [11]; 500 g ai/ha): 0; Plant response rating, Ducksalad (Flood) [12]: 35; Plant response rating, Foxtail, Giant ([13]; 125 g ai/ha): 0; Plant response rating, Foxtail, Giant ([13]; 500 g ai/ha): 70; Plant response rating, Kochia (kochia (Kochia scoparia) [14]; 125 g ai/ha): 0; Plant response rating, Kochia (kochia (Kochia scoparia) [14]; 500 g ai/ha): 0; Plant response rating, Corn (corn (Zea mays); 125 g ai/ha): 0; Plant response rating, Corn (corn (Zea mays); 500 g ai/ha): 20; Plant response rating, Rice (Flood) (rice (Oryza sativa)): 0; Plant response rating, Foxtail, Giant ([15]; 125 g ai/ha): 80; Plant response rating, Foxtail, Giant ([15]; 500 g ai/ha): 90; Plant response rating, Wheat ([16]; 125 g ai/ha): 0; Plant response rating, Wheat ([16]; 500 g ai/ha): 0; Plant response rating, Blackgrass ([17]; 125 g ai/ha): 0; Plant response rating, Blackgrass ([17]; 500 g ai/ha): 20; Plant response rating, Sedge, Umbrella (Flood) [18]: 0
O=C1NCC(c2cccc(Oc3ccc(F)cn3)c2)C1C(=O)Nc1ccccc1F (single isomer, unassigned) [Compound 49]	0	40	0	50	0	20	0	40	70	80	90	0	20	20	70	90	90	0	40	20	Plant response rating, Kochia (kochia (Kochia scoparia) [11]; 500 g ai/ha): 70; Plant response rating, Ducksalad (Flood) [12]: 100; Plant response rating, Foxtail, Giant ([13]; 125 g ai/ha): 70; Plant response rating, Foxtail, Giant ([13]; 500 g ai/ha): 90; Plant response rating, Kochia (kochia (Kochia scoparia) [14]; 125 g ai/ha): 0; Plant response rating, Kochia (kochia (Kochia scoparia) [14]; 500 g ai/ha): 0; Plant response rating, Corn (corn (Zea mays); 125 g ai/ha): 30; Plant response rating, Corn (corn (Zea mays); 500 g ai/ha): 40; Plant response rating, Rice (Flood) (rice (Oryza sativa)): 0; Plant response rating, Foxtail, Giant ([15]; 125 g ai/ha): 90; Plant response rating, Foxtail, Giant ([15]; 500 g ai/ha): 90; Plant response rating, Wheat ([16]; 125 g ai/ha): 0; Plant response rating, Wheat ([16]; 500 g ai/ha): 40; Plant response rating, Blackgrass ([17]; 125 g ai/ha): 0; Plant response rating, Blackgrass ([17]; 500 g ai/ha): 40; Plant response rating, Sedge, Umbrella (Flood) [18]: 0
O=C1NCC(c2cccc(OCC3CC3)c2)C1C(=O)Nc1ccccc1Cl (stereo not drawn) [Compound 4]	0	0	0	40	0	30	0	0	20	40	80	0	20	0	0	60	90	0	40	0	Plant response rating, Kochia (kochia (Kochia scoparia) [11]; 500 g ai/ha): 30; Plant response rating, Ducksalad (Flood) [12]: 0; Plant response rating, Foxtail, Giant ([13]; 125 g ai/ha): 40; Plant response rating, Foxtail, Giant ([13]; 500 g ai/ha): 80; Plant response rating, Kochia (kochia (Kochia scoparia) [14]; 125 g ai/ha): 0; Plant response rating, Kochia (kochia (Kochia scoparia) [14]; 500 g ai/ha): 0; Plant response rating, Corn (corn (Zea mays); 125 g ai/ha): 0; Plant response rating, Corn (corn (Zea mays); 500 g ai/ha): 0; Plant response rating, Rice (Flood) (rice (Oryza sativa)): 0; Plant response rating, Foxtail, Giant ([15]; 125 g ai/ha): 70; Plant response rating, Foxtail, Giant ([15]; 500 g ai/ha): 90; Plant response rating, Wheat ([16]; 125 g ai/ha): 0; Plant response rating, Wheat ([16]; 500 g ai/ha): 0; Plant response rating, Blackgrass ([17]; 125 g ai/ha): 0; Plant response rating, Blackgrass ([17]; 500 g ai/ha): 40; Plant response rating, Sedge, Umbrella (Flood) [18]: 0
